Laboratory results published in patent US11939402B2, “Antifungal peptides, compounds including the same, and methods of use thereof” (priority 2022, dated 2024).
≈ marks a conversion by molar mass, not a printed value. Where a SMILES comes first, the peptide text is derived from it. The star is where a group is joined. Myristoyl = CCCCCCCCCCCCCC(=O)*

What was measured:
[1] = tested on: C. neoformans wild type strain H99; test: microbe, parasite or virus in culture; assay type: cell-based, Cryptococcus neoformans; details: wild-type H99, alone, read at 24 and 48 hours, 37° C.
Description: The assays followed standard CLSI protocol for broth microdilution assays using yeasts.(32) Microbes were passaged in YPD media at 37° C. with mixing for 2 days before harvesting with an inoculation loop to prepare monocultures on Sabouraud Dextrose Agar (SDA) plates. Monocultures on SDA plates were incubated for 2 days at 37° C. before harvesting cells for microdilution assays. RPMI media (100 μL) was charged to each of the 96 wells in a 96 well plate, with an additional 100 μL in the first column. […] The 100 μL was serially diluted by a factor of 2 from the first column to the 11th column. Microbe inoculant was then prepared. An inoculation loop was used to transfer 1-3 colonies of cells to 1 mL phosphate buffer solution (PBS). The PBS and microbe solution was made uniform by vortex mixing. Cell concentration was computed by comparing the absorbance at 530 nm to 1× McFarland standard solution and multiplying the resulting ratio by 10^7 cell/mL conversion factor. Plate inoculant was prepared by diluting the PBS microbe solution to 5000 cell/mL, in RPMI media. A 100 μL aliquot of cells was transferred to each of the wells on the plate other than column 11 for the no growth control. The operating volume was 200 μL, with 500 CFU per well for a final concentration of 2.5*10^3 cells/mL.

[2] = tested on: C. neoformans cdc50Δ mutant strain; assay type: cell-based, Cryptococcus neoformans; details: alone
Description: The assays followed standard CLSI protocol for broth microdilution assays using yeasts.(32) Microbes were passaged in YPD media at 37° C. with mixing for 2 days before harvesting with an inoculation loop to prepare monocultures on Sabouraud Dextrose Agar (SDA) plates. Monocultures on SDA plates were incubated for 2 days at 37° C. before harvesting cells for microdilution assays. RPMI media (100 μL) was charged to each of the 96 wells in a 96 well plate, with an additional 100 μL in the first column. Peptide-DMSO solution (4 μL) at 12.8 mg/mL was charged to each of the wells in the first column. The 100 μL was serially diluted by a factor of 2 from the first column to the 11th column. Microbe inoculant was then prepared. An inoculation loop was used to transfer 1-3 colonies of cells to 1 mL phosphate buffer solution (PBS). The PBS and microbe solution was made uniform by vortex mixing. Cell concentration was computed by comparing the absorbance at 530 nm to 1× McFarland standard solution and multiplying the resulting ratio by 10^7 cell/mL conversion factor. Plate inoculant was prepared by diluting the PBS microbe solution to 5000 cell/mL, in RPMI media. A 100 μL aliquot of cells was transferred to each of the wells on the plate other than column 11 for the no growth control. The operating volume was 200 μL, with 500 CFU per well for a final concentration of 2.5*10^3 cells/mL.

[3] = tested on: C. neoformans wild type strain H99; details: earlier mutation study; cited from earlier work
[4] = tested on: C. neoformans cdc50Δ mutant strain; details: earlier mutation study / literature; cited from earlier work
[5] = tested on: C. neoformans cdc50Δ mutant strain; assay type: cell-based, Cryptococcus neoformans; details: concentration of the peptide in combination with caspofungin; ΔCDC50
Description: The Fractional Inhibitory Concentration Index were calculated as follows: […]

C. neoformans cells = test: AF350-Annexin V / propidium iodine flow cytometry assay (exofacial phosphatidylserine); assay type: cell-based, Cryptococcus neoformans; details: 0.128 mg/mL peptide, 20 minutes at 25° C.; control 0.2±0.1%
Description: Stock microbes were defrosted from the −80° C. freezer and were passed twice for 48 hours each in YPD media. The YPD media was removed by spinning down and the supernatant was decanted. Pelletized cells were resuspended in 1 mL PBS media and washed for 5 minutes with incubation at 25° C. and 250 RPM. Washed cells were spun down again and suspended in 1 mL of PBS solution. cells were diluted 20-fold into 1 mL fungal working solution in an eppendorf. Cell concentration was quantified via comparison to 1× McFarlain's standard on a plate reader using the absorbance value at 530 nm. An aliquot of 1*10^6 cells in 100 μL was created (1*10^7 cell/mL). […] The cells were incubated for 20 minutes at 25° C. and 250 RPM. Baseline and experimental samples were prepared in triplicate. Cells were stained using an operating concentration of 0.001 mg/mL Propidium Iodine (PI) and a 40-fold dilution of AlexaFluor 350 labelled annexin V as per manufactures instructions. After staining the cells, samples were spun down and supernatant decanted. Cells were then fixed in 4% formaldehyde for 5 minutes. Fixed cells were spun down and supernatant decanted and resuspended in 400 μL 1% formaldehyde for flowcytometry. Samples were collected at a slow flow rate on a MACS Quant 10 device (Miltenyi Biotech, Auburn, CA) with 20,000 events collected per injection.
It was sought to determine whether the activities of the peptides were related to the lipid-flipping activity of the P4-ATPase. […] The intensity of the AF350-annexin V signal corresponds to concentration of PS on the exofacial side of the membrane. The propidium iodine signal corresponds to cell viability.
Single cells were first selected and gated based on morphology to ensure homogeneity among the cell population (4A, 4B). Cells with low propidium iodine intensity (PI-A<9 RU) and high AF350-annexin V intensity (Annexin V-A>9 RU) (4C, 4D) were examined. Under these gating parameters there should be, respectively, low non-specific cell death and high exofacial PS.

C. neoformans H99 = test: SDS and plate spotting assay; assay type: cell-based, Cryptococcus neoformans; details: H99 pre-treated with peptide at 128 for one hour; versus untreated or DMSO controls
Description: To test cell integrity, C. neoformans strains from 3 ml YPD overnight cultures were washed, resuspended, and serially diluted (1:10) in dH2O and spotted (5 μl) on YPD agar plates or YPD agar plates containing 0.03% SDS and incubated for 2 days at 30° C. and 37° C.
Of each strain, yeast cells were inoculated into liquid YPD with 128 μg/ml or 64 μg/ml peptide and co-incubated for 1 h at 30° C. And then, ten-fold serial dilutions were prepared, and 5 μl of each was spotted on YPD and YPD agar plates containing 0.03% SDS. The results were photographed after a 48 h incubation. Their growth was determined by serial dilutions and the fungal colonies were assessed by CFU numbers.
Briefly, cultures of C. neoformans were grown in YPD and then spotted on YPD plates containing 0.03% SDS.

[6] = tested on: C. neoformans wild type strain H99
Description: Microbes were prepared in the same manner as the MIC assay. […] 100 μL of RPMI media was added to the first 8 wells in the first row. […] The 100 μL of media with drug was serially diluted from the first row to the final row. […] Column 11 was the no growth control, and 12 was the no drug control. The plate was inoculated with microbes in the same manner as the MIC assay. Again, 200 uL was the operating volume, 500 CFU per well, 2.5*10^3 cell/mL. Plates were incubated for 48 hours at 37° C. and read thereafter. The Fractional Inhibitory Concentration Index were calculated as follows:
Where the MICA and MICB are the MIC values of drugs A and B alone and FICA and FICB are the Fractional Inhibitory concentrations of drugs A and B in the presence of each other, respectively.

[7] = tested on: human red blood cells (RBCs); details: 1 hour 37° C.; relative to Triton X-100 control
Description: Hemolysis assays were preformed using human red blood cells (RBCs), which were provided by Interstate Blood Bank (Philadelphia, PA) and stored immediately at 4° C. upon arrival. […] Free heme was extracted from stored RBCs washing in PBS with gentle centrifugation at 1000 RPM for 5 minutes. Washed cells resuspended to 4 mL in PBS and counted using a hemocytometer. […] Red blood cells were adjusted to 5*10^8 cells/mL and 50 uL was added to each of the wells. Operating conditions were 100 μL and 2.5*10^8 cell/mL. The positive control used as 2 μL of 1% Triton X-100. The plate was incubated at 37° C. for 1 hour. The resulting plate was spun down at 1000 RPM for 5 minutes. 20 μL supernatant was transferred to 80 μL PBS in a fresh 96 well plate for analysis (operating volume 100 μL.) A Spectra Max 340 plate reader (Molecular Devices, Sunnyvale, CA) was used to measure the absorbance of the analysis plate at 410 nm. The scans were run in triplicate. Averages and standard deviations between scans and replicates were computed. The negative control was subtracted from all the data points. The resulting corrected data was normalized by the corrected positive control.

Row | SMILES | MIC ([1]; Cryptococcus neoformans, read-out: MIC ug/mL H99) | MIC ug/mL ΔCDC50 [2] | MIC of caspofungin in wild-type strain H99 [3] | MIC of caspofungin in cdc50Δ [4] | MIC ug/mL H99 [1] | FIC ug/mL ΔCDC50 Peptide [5] | percentage of cells with low propidium iodine intensity (PI-A<9 RU) and high AF350-annexin V intensity (Annexin V-A>9 RU) (C. neoformans cells) | growth (colony forming units) on agar medium with 0.03% SDS (C. neoformans H99) | MIC of caspofungin in the presence of the AW9-Ma peptide ([6]; C. neoformans wild type) | FIC ug/mL H99 Peptide ([6]; concentration of the peptide in combination with caspofungin, H99) | hemolysis of human RBC [7]
1 | CC[C@H](C)C[C@H](C)CCCCCCCCC(=O)N[C@H]1C[C@@H](O)[C@@H](NCCN)NC(=O)[C@@H]2[C@@H](O)CCN2C(=O)[C@H]([C@H](O)CCN)NC(=O)[C@H]([C@H](O)[C@@H](O)c2ccc(O)cc2)NC(=O)[C@@H]2C[C@@H](O)CN2C(=O)[C@H]([C@@H](C)O)NC1=O [Caspofungin, reference compound] | 16 µg/mL (≈ 14.6 µM) | 4 µg/mL (≈ 3.66 µM) | 16 µg/mL | 4 µg/mL | – | – | – | – | – | – | –
2 | CCCCCCCCCCCCCC(=O)N[C@@H](Cc1c[nH]c2ccccc12)C(=O)NCC(=O)NCC(=O)N[C@H](C(=O)N[C@@H](CCCCN)C(=O)N[C@@H](CCCCN)C(=O)N[C@@H](CC(N)=O)C(=O)N[C@@H](Cc1ccc(O)cc1)C(=O)N[C@@H](C)C(=O)O)[C@@H](C)CC [AW9-Ma] (Myristoyl-WGGIKKNYA-OH) | – | 2 µg/mL (≈ 1.6 µM) | – | – | 64 µg/mL (≈ 51.3 µM) | 0.125 µg/mL | 67.6%±2.3 | significantly reduced growth | 4 µg/mL | 16 µg/mL | low amounts of hemolysis
